According to US20220226337A1 (Gilead Sciences, Inc., priority 2018, published 2022):

target: T1, α4β7 integrin interaction with MadCAM-1 (RPMI8866 cells) (Homo sapiens, UniProt P13612+P26010); assay: α4β7 Integrin Cell Capture Assay; format: cell-based; settings: capture of α4β7 integrin expressing RPMI8866 cells on recombinant MadCAM-1 extracellular domain-coated plate; 0.5 mM MnCl2
T1 construct: α4β7 integrin expressing cells; endogenous in cells; host or cells: RPMI8866 cells
T1 sequence (P13612 34-1032): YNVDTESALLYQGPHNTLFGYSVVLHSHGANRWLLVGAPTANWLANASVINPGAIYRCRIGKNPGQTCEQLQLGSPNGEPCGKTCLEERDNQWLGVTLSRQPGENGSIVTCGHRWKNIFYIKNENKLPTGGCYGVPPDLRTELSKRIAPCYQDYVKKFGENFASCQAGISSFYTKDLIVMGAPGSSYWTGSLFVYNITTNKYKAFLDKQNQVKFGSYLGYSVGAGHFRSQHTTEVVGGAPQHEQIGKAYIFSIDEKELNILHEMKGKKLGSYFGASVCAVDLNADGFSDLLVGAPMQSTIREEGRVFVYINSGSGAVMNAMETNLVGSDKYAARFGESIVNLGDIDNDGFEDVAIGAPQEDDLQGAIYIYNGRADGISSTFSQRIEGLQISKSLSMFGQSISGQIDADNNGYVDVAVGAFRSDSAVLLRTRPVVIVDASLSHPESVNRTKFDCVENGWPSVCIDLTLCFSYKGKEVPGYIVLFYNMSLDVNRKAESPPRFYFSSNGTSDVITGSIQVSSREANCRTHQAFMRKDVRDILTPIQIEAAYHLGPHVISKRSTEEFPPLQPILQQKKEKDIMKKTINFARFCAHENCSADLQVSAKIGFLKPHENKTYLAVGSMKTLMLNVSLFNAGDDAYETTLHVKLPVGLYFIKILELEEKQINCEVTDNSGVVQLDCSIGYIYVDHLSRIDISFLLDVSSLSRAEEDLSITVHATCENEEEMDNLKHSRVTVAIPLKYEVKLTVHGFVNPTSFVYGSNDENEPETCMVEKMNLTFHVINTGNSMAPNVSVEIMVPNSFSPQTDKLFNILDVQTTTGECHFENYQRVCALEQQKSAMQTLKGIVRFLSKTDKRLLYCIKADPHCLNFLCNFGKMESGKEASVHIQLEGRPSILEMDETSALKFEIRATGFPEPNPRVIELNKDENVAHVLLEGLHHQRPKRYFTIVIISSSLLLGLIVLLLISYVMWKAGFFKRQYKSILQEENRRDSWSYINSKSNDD
T1 sequence (P26010 20-798): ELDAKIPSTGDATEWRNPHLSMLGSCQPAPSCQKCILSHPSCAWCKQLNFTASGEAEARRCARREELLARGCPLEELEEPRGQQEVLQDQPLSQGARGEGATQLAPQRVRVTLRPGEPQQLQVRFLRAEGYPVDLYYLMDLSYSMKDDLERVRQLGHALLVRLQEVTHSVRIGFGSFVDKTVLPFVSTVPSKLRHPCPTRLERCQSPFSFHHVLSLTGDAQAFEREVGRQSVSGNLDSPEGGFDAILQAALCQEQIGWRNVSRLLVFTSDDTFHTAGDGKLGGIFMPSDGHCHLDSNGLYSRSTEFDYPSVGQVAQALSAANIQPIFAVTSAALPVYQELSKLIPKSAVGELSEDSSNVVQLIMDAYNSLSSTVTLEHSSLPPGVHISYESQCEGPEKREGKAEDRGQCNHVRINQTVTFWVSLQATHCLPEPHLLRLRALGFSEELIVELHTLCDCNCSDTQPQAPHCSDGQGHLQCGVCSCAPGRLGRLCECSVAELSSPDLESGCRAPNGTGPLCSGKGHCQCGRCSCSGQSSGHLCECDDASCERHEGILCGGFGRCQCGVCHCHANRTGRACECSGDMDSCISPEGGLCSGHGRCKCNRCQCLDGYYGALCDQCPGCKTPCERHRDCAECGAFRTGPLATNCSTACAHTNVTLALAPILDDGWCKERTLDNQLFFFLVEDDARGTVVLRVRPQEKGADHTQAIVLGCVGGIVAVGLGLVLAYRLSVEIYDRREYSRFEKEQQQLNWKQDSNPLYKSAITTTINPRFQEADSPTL
Protocol: The potency of inhibitors in preventing α4β7 integrin interaction with MadCAM-1 was measured by monitoring the capture of α4β7 integrin expressing cells on a recombinant MadCAM-1 extracellular domain-coated plate. 384-well plates (Corning 3702) were coated with MadCAM-1 extracellular domain by dispensing 20 μL of MAdCAM-1 at 1.0 μg/mL per well and incubating overnight at 4° C. The plates were then washed with PBS and blocked with 3% BSA for 2 hours before being washed again. RPMI8866 cells were spun down and re-suspended in assay medium (DMEM+0.5% FBS+0.5 mM MnCl2) at a density of 0.5×10^6 cells/mL. The cells were then dispensed (60 μL/well) to a 384-well plate (Greiner 781280) that was previously spotted with 60 nL of test compound per well. The plates were incubated at 37° C. for 1 hour. 50 μL of cells were transferred to the blocked, MadCAM-1-coated plates and incubated for 30 minutes at 37° C. 10 μL of 12% glutaraldehyde containing Hoechst 33342 (0.06 mg/mL) was added to the cells (2% glutaraldehyde and 0.01 mg/mL final concentrations). The plates were incubated for 90 minutes at room temperature. The plates were then washed 3 times with 70 μL of PBS per well and imaged on a Cellomics ArrayScan instrument. The cells that were bound to the plate were counted and plotted against the compound concentration to determine the EC50 of the test compounds.

Compound | EC50
O=C(N[C@@H](Cc1ccc(-c2cc(F)c(F)cc2OC2CC2)c2c1CCCO2)C(=O)O)c1c(Cl)cccc1Cl [Example 64, (S)-3-(8-(2-cyclopropoxy-4,5-difluorophenyl)chroman-5-yl)-2-(2,6-dichlorobenzamido)propanoic acid] | 110 nM
Cc1nc(-c2ccc(C[C@H](NC(=O)c3c(F)cc(N4CCOC[C@@H]4C(F)(F)F)cc3F)C(=O)O)c3c2C[C@@H](O)C3)c(=O)n(C)c1C [Example 192] | 0.228 nM
O=C(N[C@@H](Cc1ccc(-c2c(Cl)cc(F)cc2Cl)c2c1CCCN2)C(=O)O)c1c(F)cccc1F [Example 101, (S)-3-(8-(2,6-dichloro-4-fluorophenyl)-1,2,3,4-tetrahydroquinolin-5-yl)-2-(2,6-difluorobenzamido)propanoic acid] | 26.9 nM
Cc1cc(C(F)(F)F)c(-c2ccc(C[C@H](NC(=O)c3c(F)cc(N4CCOC[C@@H]4C(F)(F)F)cc3F)C(=O)O)c3c2CCC3)c(=O)n1C [Example 202] | 0.144 nM
O=C(N[C@@H](Cc1ccc(-c2cccc3c2OCCC3)c2c1CCCO2)C(=O)O)c1c(F)cccc1F [Example 66, (S)-3-([8,8′-bichroman]-5-yl)-2-(2,6-difluorobenzamido)propanoic acid] | 120 nM
Cc1nc(-c2ccc(C[C@@H](C(=O)O)N(C)C(=O)c3c(F)cc(N4CCOC[C@@H]4C(F)(F)F)cc3F)c3c2OCCC3)c(=O)n(C)c1C [Example 125] | 94.9 nM
C[C@@H](Nc1cc(F)c(C(=O)N[C@@H](Cc2ccc(-c3ncccc3C(F)(F)F)c3c2CCCO3)C(=O)O)c(F)c1)C(F)(F)F [Example 89, (S)-2-(2,6-difluoro-4-(((R)-1,1,1-trifluoropropan-2-yl)amino)benzamido)-3-(8-(3-(trifluoromethyl)pyridin-2-yl)chroman-5-yl)propanoic acid] | 8.47 nM
Cc1cccc(F)c1C(=O)N[C@@H](Cc1ccc(-c2nc(C)c(C)n(C)c2=O)c2c1OCCO2)C(=O)O [Example 181] | 4.34 nM
Cc1cc(N2CCOC[C@@H]2C(F)(F)F)cc(F)c1C(=O)N[C@@H](Cc1ccc(-n2c(=O)c3ccncc3n(C)c2=O)c2c1OCCO2)C(=O)O [Example 173] | 0.056 nM
Cc1c(-c2ccc(C[C@H](NC(=O)c3c(F)cccc3F)C(=O)O)c3c2CCOC3)c(=O)n(C)c2ccc(F)cc12 (single isomer, unassigned) [Example 36] | 24.8 nM
N#Cc1cc(Cl)c(-c2ccc(C[C@H](NC(=O)c3c(F)cc(N[C@H](c4ccccc4)C(F)(F)F)cc3F)C(=O)O)c3c2OCCC3)c(Cl)c1 [Example 87, (S)-3-(8-(2,6-dichloro-4-cyanophenyl)chroman-5-yl)-2-(2,6-difluoro-4-(((R)-2,2,2-trifluoro-1-phenylethyl)amino)benzamido)propanoic acid] | 12.8 nM
Cc1cc(N2CCOC[C@@H]2C(F)(F)F)cc(F)c1C(=O)N[C@@H](Cc1ccc(-c2cnc(C)n(C)c2=O)c2c1CCCO2)C(=O)O [Example 128] | 0.446 nM
O=C(N[C@@H](Cc1ccc(-c2c(Cl)cc(F)cc2Cl)c2c1[C@H]1C[C@H]1CO2)C(=O)O)c1c(F)cccc1F (single isomer, unassigned) [Example 78] | 120 nM
CC[C@@H](Nc1cc(F)c(C(=O)N[C@@H](Cc2ccc(-c3c(OC)cc(C)n(C)c3=O)c3c2CCCO3)C(=O)O)c(F)c1)C(F)(F)F [Example 47, (S)-2-(2,6-difluoro-4-(((R)-1,1,1-trifluorobutan-2-yl)amino)benzamido)-3-(8-(4-methoxy-1,6-dimethyl-2-oxo-1,2-dihydropyridin-3-yl)chroman-5-yl)propanoic acid] | 0.58 nM
N#Cc1ccc(-c2ccc(C[C@H](NC(=O)c3c(F)cccc3F)C(=O)O)c3c2OCCC3)c(Cl)c1 [Example 72, (S)-3-(8-(2-chloro-4-cyanophenyl)chroman-5-yl)-2-(2,6-difluorobenzamido)propanoic acid] | 53.3 nM
Cc1nc(-c2ccc(C[C@H](NC(=O)c3c(F)cc(N4CCC(F)(F)C[C@H]4C(F)(F)F)cc3F)C(=O)O)c3c2OCCC3)c(=O)n(C)c1C [Example 143] | 4.72 nM
Cc1c(-c2ccc(C[C@H](NC(=O)c3c(F)cccc3F)C(=O)O)c3c2COC3)c(=O)n(C)c(=O)n1C [Example 18, (S)-2-(2,6-difluorobenzamido)-3-(7-(1,3,6-trimethyl-2,4-dioxo-1,2,3,4-tetrahydropyrimidin-5-yl)-1,3-dihydroisobenzofuran-4-yl)propanoic acid] | 5.22 nM
Cn1c(=O)n(-c2ccc(C[C@H](NC(=O)c3c(F)cc(N4CCOC[C@@H]4C(F)(F)F)cc3F)C(=O)O)c3c2COC3)c(=O)c2ccncc21 [Example 182] | 0.277 nM
Cc1cc(N2CCOC[C@@H]2C(F)(F)F)cc(F)c1C(=O)N[C@@H](Cc1ccc(-c2nc(C)c(C)n(C)c2=O)c2c1OCCO2)C(=O)O [Example 179] | 0.267 nM
Cc1nc(-c2ccc(C[C@H](NC(=O)c3c(F)cc(N4C[C@H]5C[C@H]5[C@@H]4C(F)(F)F)cc3F)C(=O)O)c3c2OCCC3)c(=O)n(C)c1C [Example 138] | 0.964 nM
Cc1cc(N2CCC2)c(-c2ccc(C[C@H](NC(=O)c3c(F)cc(N4CCOC[C@@H]4C(F)(F)F)cc3F)C(=O)O)c3c2OCCC3)c(=O)n1C (atropisomer, axis not shown) [Example 153] | 0.551 nM
Cc1cc(C(F)(F)F)c(-c2ccc(C[C@H](NC(=O)c3c(F)cc(N4CCOC[C@@H]4C(F)(F)F)cc3F)C(=O)O)c3c2CCN(C)C3)c(=O)n1C [Example 203] | 0.36 nM
Cc1cc(C(F)(F)F)c(-c2ccc(C[C@H](NC(=O)c3c(F)cc(N[C@H](C)C(F)(F)F)cc3F)C(=O)O)c3c2OCCC3)c(=O)n1C (single isomer, unassigned) [Example 41] | 0.594 nM
CCOCc1cc(OC)c(-c2ccc(C[C@H](NC(=O)c3c(F)cc(NS(=O)(=O)c4ccc(-c5ccnc(F)c5)cc4)cc3F)C(=O)O)c3c2CCCO3)c(OC)c1 [Example 100, (S)-2-(2,6-difluoro-4-((4-(2-fluoropyridin-4-yl)phenyl)sulfonamido)benzamido)-3-(5-(4-(ethoxymethyl)-2,6-dimethoxyphenyl)chroman-8-yl)propanoic acid] | 1.67 nM
O=C(N[C@@H](Cc1ccc(-c2c(Cl)cc(F)cc2Cl)c2c1CCCO2)C(=O)O)c1c(F)cc(N[C@H](c2ccccc2)C(F)(F)F)cc1F [Example 84, (S)-3-(8-(2,6-dichloro-4-fluorophenyl)chroman-5-yl)-2-(2,6-difluoro-4-(((R)-2,2,2-trifluoro-1-phenylethyl)amino)benzamido)propanoic acid] | 64 nM
